The subject of the experiment is MV-4-11 cells. As to the kind of experiment: Gene expression microarray analysis (Affymetrix PrimeView) and GSEA. The format is cell-based, human. The arrangement: RFU PODN (11730768_x_at) / Fold change /veh PODN (11730768_x_at) / RFU LINC00158 (11744669_a_at) / Fold change /veh LINC00158 (11744669_a_at) / RFU DUSP10 (11751237_a_at) / Fold change /veh DUSP10 (11751237_a_at) / RFU ID3 (11757404_x_at) / Fold change /veh ID3 (11757404_x_at) / RFU PLEKHG5 (11737974_s_at) / Fold change /veh PLEKHG5 (11737974_s_at) / RFU LRRC4B (11730491_at) / Fold change /veh LRRC4B (11730491_at) / RFU GIMAP4 (11747438_a_at) / Fold change /veh GIMAP4 (11747438_a_at) / RFU KRT8 (11758183_x_at) / Fold change /veh KRT8 (11758183_x_at) / RFU CNN1 (11734310_a_at) / Fold change /veh CNN1 (11734310_a_at) / RFU VPS37D (11726825_at) / Fold change /veh VPS37D (11726825_at) / RFU C10orf10 (11716522_x_at) / Fold change /veh C10orf10 (11716522_x_at) / RFU KIR2DL2 /// KIR2DL4 /// KIR2DL5A /// KIR2DL5B /// KIR2DS1 /// KIR2DS2 /// KIR2DS3 /// KIR2DS4 /// KIR3DL3 /// KIR3DL3 /// KIR3DS1 (11738374_at) / Fold change /veh KIR2DL2 /// KIR2DL4 /// KIR2DL5A /// KIR2DL5B /// KIR2DS1 /// KIR2DS2 /// KIR2DS3 /// KIR2DS4 /// KIR3DL3 /// KIR3DL3 /// KIR3DS1 (11738374_at) / RFU C1QL1 (11718748_at) / Fold change /veh C1QL1 (11718748_at) / RFU TMPRSS4 (11747572_a_at) / Fold change /veh TMPRSS4 (11747572_a_at) / RFU HAMP (11756126_x_at) / Fold change /veh HAMP (11756126_x_at) / RFU RNFT2 (11725882_a_at) / Fold change /veh RNFT2 (11725882_a_at) / RFU NR4A2 (11747474_a_at) / Fold change /veh NR4A2 (11747474_a_at) / RFU ABCC12 (11746883_a_at) / Fold change /veh ABCC12 (11746883_a_at) / RFU TMEM136 (11760407_x_at) / Fold change /veh TMEM136 (11760407_x_at) / RFU CLDN22 /// WWC2 (11732394_at) / Fold change /veh CLDN22 /// WWC2 (11732394_at) / RFU HLA-DPB1 (11760878_x_at) / Fold change /veh HLA-DPB1 (11760878_x_at) / RFU SPINT1 (11716480_a_at) / Fold change /veh SPINT1 (11716480_a_at) / RFU GAP43 (11754022_s_at) / Fold change /veh GAP43 (11754022_s_at) / RFU A4GNT (11735810_at) / Fold change /veh A4GNT (11735810_at) / RFU PRB3 (11715151_x_at) / Fold change /veh PRB3 (11715151_x_at) / RFU TUBB4B (11761932_at) / Fold change /veh TUBB4B (11761932_at) / RFU CAPN14 (11732068_a_at) / Fold change /veh CAPN14 (11732068_a_at) / RFU TMCC2 (11721928_a_at) / Fold change /veh TMCC2 (11721928_a_at) / RFU IRGQ (11745062_a_at) / Fold change /veh IRGQ (11745062_a_at) / RFU FAM174B (11720279_a_at) / Fold change /veh FAM174B (11720279_a_at) / RFU TMPRSS4 (11748680_a_at) / Fold change /veh TMPRSS4 (11748680_a_at) / RFU FAM212B (11763350_a_at) / Fold change /veh FAM212B (11763350_a_at) / RFU PLEKHG5 (11743358_a_at) / Fold change /veh PLEKHG5 (11743358_a_at) / RFU ZSCAN30 (11745921_a_at) / Fold change /veh ZSCAN30 (11745921_a_at) / RFU CMKLR1 (11741424_a_at) / Fold change /veh CMKLR1 (11741424_a_at) / RFU LOC101060620 /// MAPK8IP1 (11723275_at) / Fold change /veh LOC101060620 /// MAPK8IP1 (11723275_at) / RFU SPTSSB (11747773_x_at) / Fold change /veh SPTSSB (11747773_x_at) / RFU PRSS12 (11739890_at) / Fold change /veh PRSS12 (11739890_at) / RFU BIN1 (11741810_x_at) / Fold change /veh BIN1 (11741810_x_at) / RFU WNT11 (11732464_a_at) / Fold change /veh WNT11 (11732464_a_at) / RFU C10orf10 (11716521_a_at) / Fold change /veh C10orf10 (11716521_a_at) / RFU C5orf56 (11738089_at) / Fold change /veh C5orf56 (11738089_at) / RFU CYB561 (11721691_x_at) / Fold change /veh CYB561 (11721691_x_at) / RFU ANKRD19P (11752326_a_at) / Fold change /veh ANKRD19P (11752326_a_at) / RFU OR2T12 /// OR2T33 /// OR2T8 (11738714_s_at) / Fold change /veh OR2T12 /// OR2T33 /// OR2T8 (11738714_s_at) / RFU VCAN (11748164_a_at) / Fold change /veh VCAN (11748164_a_at) / RFU JSRP1 (11732532_at) / Fold change /veh JSRP1 (11732532_at) / RFU KRTAP10-11 (11738290_x_at) / Fold change /veh KRTAP10-11 (11738290_x_at) / RFU MYO3A (11730013_a_at) / Fold change /veh MYO3A (11730013_a_at) / RFU EBF3 (11725865_a_at) / Fold change /veh EBF3 (11725865_a_at) / RFU CAMK2N1 (11719241_x_at) / Fold change /veh CAMK2N1 (11719241_x_at) / RFU C5orf56 (11738088_a_at) / Fold change /veh C5orf56 (11738088_a_at) / RFU OLFML3 (11715873_a_at) / Fold change /veh OLFML3 (11715873_a_at) / RFU LOC100653217 /// NTM (11731650_a_at) / Fold change /veh LOC100653217 /// NTM (11731650_a_at) / RFU MAPK11 (11762145_a_at) / Fold change /veh MAPK11 (11762145_a_at) / RFU FIZ1 (11724087_x_at) / Fold change /veh FIZ1 (11724087_x_at) / RFU OASL (11726364_x_at) / Fold change /veh OASL (11726364_x_at) / RFU SOX15 (11748057_x_at) / Fold change /veh SOX15 (11748057_x_at) / RFU CD79A (11719716_a_at) / Fold change /veh CD79A (11719716_a_at) / RFU HIST1H1D (11736915_at) / Fold change /veh HIST1H1D (11736915_at) / RFU CASKIN2 (11723855_a_at) / Fold change /veh CASKIN2 (11723855_a_at) / RFU LOC730098 (11760151_x_at) / Fold change /veh LOC730098 (11760151_x_at) / RFU OR4N2 (11742367_at) / Fold change /veh OR4N2 (11742367_at) / RFU PRRT2 (11749266_a_at) / Fold change /veh PRRT2 (11749266_a_at) / RFU SNX32 (11753110_a_at) / Fold change /veh SNX32 (11753110_a_at) / RFU CDHR5 (11726645_a_at) / Fold change /veh CDHR5 (11726645_a_at) / RFU RCAN1 (11760418_a_at) / Fold change /veh RCAN1 (11760418_a_at) / RFU FAM167A (11723789_a_at) / Fold change /veh FAM167A (11723789_a_at) / RFU FAM26E (11764081_at) / Fold change /veh FAM26E (11764081_at) / RFU ISYNA1 (11749810_s_at) / Fold change /veh ISYNA1 (11749810_s_at) / RFU ACY1 (11761880_at) / Fold change /veh ACY1 (11761880_at) / RFU 11764098_at / Fold change /veh 11764098_at / RFU SAMD14 (11745864_x_at) / Fold change /veh SAMD14 (11745864_x_at) / RFU NPB (11741838_a_at) / Fold change /veh NPB (11741838_a_at) / RFU TMPRSS6 (11731388_a_at) / Fold change /veh TMPRSS6 (11731388_a_at) / RFU KRTAP10-2 (11738614_at) / Fold change /veh KRTAP10-2 (11738614_at) / RFU ARHGAP8 /// PRR5-ARHGAP8 (11727945_x_at) / Fold change /veh ARHGAP8 /// PRR5-ARHGAP8 (11727945_x_at) / RFU KRTAP5-7 /// NADSYN1 (11734609_at) / Fold change /veh KRTAP5-7 /// NADSYN1 (11734609_at) / RFU RASL12 (11751679_a_at) / Fold change /veh RASL12 (11751679_a_at) / RFU CDKN2B (11736163_a_at) / Fold change /veh CDKN2B (11736163_a_at) / RFU PRF1 (11729649_at) / Fold change /veh PRF1 (11729649_at) / RFU, ZNF638 /// ZNF638-IT1 / Fold change vs veh, ZNF638 /// ZNF638-IT1 / RFU, PANK3 / Fold change vs veh, PANK3 / RFU, SH3YL1 / Fold change vs veh, SH3YL1 / RFU, ZEB2 / Fold change vs veh, ZEB2 / RFU, NRIP1 / Fold change vs veh, NRIP1 / RFU, PTTG1IP / Fold change vs veh, PTTG1IP / RFU, CAPN2 / Fold change vs veh, CAPN2 / RFU, MED14 / Fold change vs veh, MED14 / RFU, SNORA58 / Fold change vs veh, SNORA58 / RFU, C1orf63 / Fold change vs veh, C1orf63 / RFU, LRRFIP1 / Fold change vs veh, LRRFIP1 / RFU, NDUFAF7 / Fold change vs veh, NDUFAF7 / RFU, SLC12A2 / Fold change vs veh, SLC12A2 / RFU, IBTK / Fold change vs veh, IBTK / RFU, ESF1 / Fold change vs veh, ESF1 / Fold change vs veh, TMEM50B / RFU, TAOK1 / Fold change vs veh, TAOK1 / RFU, ACBD3 / Fold change vs veh, ACBD3 / RFU, TMA16 / Fold change vs veh, TMA16 / RFU, RWDD3 / Fold change vs veh, RWDD3 / RFU, BCAT1 / Fold change vs veh, BCAT1 / RFU, EDEM3 / Fold change vs veh, EDEM3 / RFU, TMEM33 / Fold change vs veh, TMEM33 / RFU, WDR75 / Fold change vs veh, WDR75 / RFU, AHCTF1 / Fold change vs veh, AHCTF1 / RFU, TFRC / Fold change vs veh, TFRC / RFU, ZDHHC17 / Fold change vs veh, ZDHHC17 / RFU, NOM1 / Fold change vs veh, NOM1 / RFU, ARL8B / Fold change vs veh, ARL8B / RFU, ZBTB11 / Fold change vs veh, ZBTB11 / RFU, TAMM41 / Fold change vs veh, TAMM41 / RFU, KIAA1704 /// LOC100996395 / Fold change vs veh, KIAA1704 /// LOC100996395 / RFU, ING1 / Fold change vs veh, ING1 / RFU, TRMT61B / Fold change vs veh, TRMT61B / RFU, FUBP3 / Fold change vs veh, FUBP3 / RFU, TP53 / Fold change vs veh, TP53 / RFU, TNKS2 / Fold change vs veh, TNKS2 / RFU, ZFP14 / Fold change vs veh, ZFP14 / RFU, ACTR2 / Fold change vs veh, ACTR2 / RFU, PPP3R1 / Fold change vs veh, PPP3R1 / RFU, PIK3R1 / Fold change vs veh, PIK3R1 / RFU, HNRNPA1 / Fold change vs veh, HNRNPA1 / RFU, RNF170 / Fold change vs veh, RNF170 / RFU, ZNF28 / Fold change vs veh, ZNF28 / RFU, RNGTT / Fold change vs veh, RNGTT / RFU, OGT / Fold change vs veh, OGT / RFU, BRD1 / Fold change vs veh, BRD1 / RFU, MARS / Fold change vs veh, MARS / RFU, ZNF655 / Fold change vs veh, ZNF655 / RFU, FAHD1 / Fold change vs veh, FAHD1 / RFU, BDP1 / Fold change vs veh, BDP1 / RFU, LRRCC1 / Fold change vs veh, LRRCC1 / RFU, ARID1A / Fold change vs veh, ARID1A / RFU, ZNF146 / Fold change vs veh, ZNF146 / RFU, ZNF330 / Fold change vs veh, ZNF330 / RFU, GPN3 / Fold change vs veh, GPN3 / RFU, C9orf123 / Fold change vs veh, C9orf123 / RFU, N4BP2L2 / Fold change vs veh, N4BP2L2 / RFU, ARFIP1 / Fold change vs veh, ARFIP1 / RFU, FAM179B / Fold change vs veh, FAM179B / RFU, BCL10 / Fold change vs veh, BCL10 / RFU, UHRF1BP1L / Fold change vs veh, UHRF1BP1L / RFU, BET1 / Fold change vs veh, BET1 / RFU, CNOT2 / Fold change vs veh, CNOT2 / RFU, ZNF268 / Fold change vs veh, ZNF268 / Fold change vs veh, ZNF507 / RFU, DGCR2 / Fold change vs veh, DGCR2 / RFU, WDSUB1 / Fold change vs veh, WDSUB1 / Fold change vs veh, HSP90B1 /// MIR3652 / RFU, ADSS / Fold change vs veh, ADSS / RFU, GK / Fold change vs veh, GK / RFU, ZNF148 / Fold change vs veh, ZNF148 / RFU, TAF9 / Fold change vs veh, TAF9 / RFU, SLC1A5 / Fold change vs veh, SLC1A5 / RFU, SLMO2 / Fold change vs veh, SLMO2 / RFU, ABCC4 / Fold change vs veh, ABCC4 / RFU, LOC101060439 /// RAP1B / Fold change vs veh, LOC101060439 /// RAP1B / RFU, RFX7 / Fold change vs veh, RFX7 / RFU, GTPBP10 / Fold change vs veh, GTPBP10 / RFU, CNEP1R1 / Fold change vs veh, CNEP1R1 / RFU, BIVM-ERCC5 /// ERCC5 / Fold change vs veh, BIVM-ERCC5 /// ERCC5 / RFU, ILF3 / Fold change vs veh, ILF3 / RFU 11762660_at / Fold change /veh 11762660_at / RFU VCAN (11757783_s_at) / Fold change /veh VCAN (11757783_s_at) / RFU DDX43 (11728927_at) / Fold change /veh DDX43 (11728927_at) / RFU KRT8 (11758188_x_at) / Fold change /veh KRT8 (11758188_x_at) / RFU NKD1 (11759106_at) / Fold change /veh NKD1 (11759106_at) / RFU SRD5A1 (11742802_a_at) / Fold change /veh SRD5A1 (11742802_a_at) / RFU TPSAB1 /// TPSB2 (11721975_s_at) / Fold change /veh TPSAB1 /// TPSB2 (11721975_s_at) / RFU GSTM3 (11746129_a_at) / Fold change /veh GSTM3 (11746129_a_at) / RFU IL23R (11737362_x_at) / Fold change /veh IL23R (11737362_x_at) / RFU TMEM51 (11727254_a_at) / Fold change /veh TMEM51 (11727254_a_at) / RFU PIWIL2 (11732686_x_at) / Fold change /veh PIWIL2 (11732686_x_at) / RFU ORM1 (11744905_x_at) / Fold change /veh ORM1 (11744905_x_at) / RFU CCDC152 (11743942_at) / Fold change /veh CCDC152 (11743942_at) / RFU ECM1 (11717891_a_at) / Fold change /veh ECM1 (11717891_a_at) / RFU IL23R (11748794_a_at) / Fold change /veh IL23R (11748794_a_at) / RFU TNFAIP8L3 (11732012_x_at) / Fold change /veh TNFAIP8L3 (11732012_x_at) / RFU MBOAT4 (11741988_at) / Fold change /veh MBOAT4 (11741988_at) / RFU 11764193_at / Fold change /veh 11764193_at / RFU TMEM53 (11763286_at) / Fold change /veh TMEM53 (11763286_at) / RFU MAGEB2 (11727129_at) / Fold change /veh MAGEB2 (11727129_at) / RFU TMEM200A (11744735_a_at) / Fold change /veh TMEM200A (11744735_a_at) / RFU CCDC152 (11751479_a_at) / Fold change /veh CCDC152 (11751479_a_at) / RFU FAM211A (11726209_a_at) / Fold change /veh FAM211A (11726209_a_at) / RFU RGS16 (11746705_a_at) / Fold change /veh RGS16 (11746705_a_at) / RFU VCAN (11755009_s_at) / Fold change /veh VCAN (11755009_s_at) / RFU RHOB (11743442_s_at) / Fold change /veh RHOB (11743442_s_at) / RFU RGS16 (11720943_a_at) / Fold change /veh RGS16 (11720943_a_at) / RFU RGS16 (11720944_at) / Fold change /veh RGS16 (11720944_at) / RFU, VPS4B / Fold change vs veh, VPS4B / RFU, CREB1 / Fold change vs veh, CREB1 / RFU, DNAJC13 / Fold change vs veh, DNAJC13 / RFU, GNAQ / Fold change vs veh, GNAQ / RFU, CDK5R1 / Fold change vs veh, CDK5R1 / RFU, ZRANB3 / Fold change vs veh, ZRANB3 / RFU, CUL4A / Fold change vs veh, CUL4A / RFU, CCNY / Fold change vs veh, CCNY / RFU, UFL1 / Fold change vs veh, UFL1 / RFU, COG3 / Fold change vs veh, COG3 / RFU, DIAPH2 / Fold change vs veh, DIAPH2 / RFU, SKA2 / Fold change vs veh, SKA2 / RFU, AFF3 / Fold change vs veh, AFF3 / RFU, LMF1 / Fold change vs veh, LMF1 / RFU, IPO11 / Fold change vs veh, IPO11 / RFU, DFFB / Fold change vs veh, DFFB / RFU, FOXP1 / Fold change vs veh, FOXP1 / RFU, CARD8 / Fold change vs veh, CARD8 / RFU, STRN3 / Fold change vs veh, STRN3 / RFU, ADK / Fold change vs veh, ADK / RFU, RASSF2 / Fold change vs veh, RASSF2 / RFU, WIPF1 / Fold change vs veh, WIPF1 / RFU, LARP1B / Fold change vs veh, LARP1B / RFU, RASA1 / Fold change vs veh, RASA1 / RFU, RB1 / Fold change vs veh, RB1 / RFU, PPFIA1 / Fold change vs veh, PPFIA1 / RFU, MAT2A / Fold change vs veh, MAT2A / RFU, CCT5 / Fold change vs veh, CCT5 / RFU, WDR92 / Fold change vs veh, WDR92 / RFU, CUX1 / Fold change vs veh, CUX1 / RFU, TTC7A / Fold change vs veh, TTC7A / RFU, TMEM135 / Fold change vs veh, TMEM135 / RFU, DEPTOR / Fold change vs veh, DEPTOR / RFU, CPM / Fold change vs veh, CPM / RFU, DNAJB6 / Fold change vs veh, DNAJB6 / RFU, CACNA2D3 / Fold change vs veh, CACNA2D3 / RFU, DTX4 / Fold change vs veh, DTX4 / RFU, TFCP2 / Fold change vs veh, TFCP2 / RFU, GMCL1 /// GMCL1P1 / Fold change vs veh, GMCL1 /// GMCL1P1 / RFU, AEBP2 / Fold change vs veh, AEBP2 / RFU, SNHG1 /// SNORD22 /// SNORD25 /// SNORD26 /// SNORD27 /// SNORD28 /// SNORD29 /// SNORD31 / Fold change vs veh, SNHG1 /// SNORD22 /// SNORD25 /// SNORD26 /// SNORD27 /// SNORD28 /// SNORD29 /// SNORD31 / Fold change (Aza/veh), C12orf56 (ProbeSet 11735607_a_at) / Fold change (ACY-1035/veh), C12orf56 (ProbeSet 11735607_a_at) / Fold change (Aza/veh), FGFR1OP (ProbeSet 11751329_s_at) / Fold change (ACY-1035/veh), FGFR1OP (ProbeSet 11751329_s_at) / Fold change (Aza/veh), VPS36 (ProbeSet 11739960_a_at) / Fold change (ACY-1035/veh), VPS36 (ProbeSet 11739960_a_at) / RFU SYPL1 (11715823_x_at) / Fold change /veh SYPL1 (11715823_x_at) / RFU IGFBP7 (11715501_s_at) / Fold change /veh IGFBP7 (11715501_s_at) / RFU REEP3 (11722064_at) / Fold change /veh REEP3 (11722064_at) / RFU IGLL1 (11728026_x_at) / Fold change /veh IGLL1 (11728026_x_at): dose or concentration left out as unconfirmed. The following applies: MV-4-11 cells, 48 hours.

Molecules are shown by their SMILES.

Regarding `Nc1ccc(-c2cccs2)cc1NC(=O)c1ccc2c(c1)cc(C1CC1)n2CCN1CCOCC1` [ACY-1035], the “RFU TMPRSS6 (11731388_a_at)” value was 73.78 RFU.

The values above are taken from paper PMC5218480 (PLoS ONE, 2017).
